This passage reports IC50 and GI50 results from patent publication US7745450B2, “Pyrazolo[4,3-d]pyrimidines, processes for their preparation and methods for therapy” (Institute of Experimental Botany, priority 2002, dated 2010).

pIC50: −log10 of the molar value.

In test [1] the target is cdk1/cyclin B (CDC2) (Homo sapiens, UniProt P06493). In words: CDK inhibition assay, cdk1/cyclin B (CDC2) kinase, histone phosphorylation. The format is biochemical. As for the experimental part:
Selected compounds were tested for cdk1/cyclin B and cdk2/cyclin E inhibitory activity to determine the basic relationships between their interaction energy of docked complex and the inhibitory activity. Cdk2/cyclin E complex was produced in SIP insect cells co-infected with appropriate baculoviral construct. The cells were harvested 70 hours post infection in lysis buffer (50 mM Tris 7.4 pH, 150 mM NaCl, 5 mM EDTA, 20 mM NaF, 1% Tween 20, protease inhibitors) for 30 min on ice and the soluble fraction was recovered by centrifugation at 14.000 g for 10 min. The protein extract was stored at −80° C. until use. The final point test system for kinase activity measurement was used to carry out experiments on the kinetics under linear conditions. The assay mixture contained 1 mg/ml histone (Sigma Type III-S), 15 μM ATP, 0.2 μCi [γ-^32P] ATP and tested compound in a final volume of 20 μl, all in reaction buffer: 50 mM Hepes 7.4 pH, 10 mM MgCl2, 5 mM EGTA, 10 mM 2-glycerolphosphate, 1 mM NaF, 1 mM DTT and protease inhibitors. […] The measurement of kinase inhibition employed the digital imaging analyzer BAS 1800. The kinase activity was expressed as a percentage of maximum activity and the IC50 value was determined by graphic analysis. The kinase activity is expressed as a percentage of maximum activity, the apparent inhibition constants are determined by graphic analysis from dose-response curves presented on FIG. 1.

The target of test [2] is IκB-α kinase. In words: IκB-α kinase inhibition, in vitro kinase assay. The format is biochemical.
The test system of test [3] is CEM (human lymphoblastoid leukemia). In words: In vitro cytotoxic activity, Calcein AM. The format is cell-based. To be noted: Homo sapiens, 72 h, three days. As for the experimental part:
We have been using the following cell lines: HELA (human cervical carcinoma), MCF7 (human breast adenocarcinoma), NIH 3T3 (mouse fibroblasts), HOS (human osteogenic sarcoma), HL 60 (human promyelocytic leukemia), G 361 (human malignant melanoma), K562 (human erythroleukemia), CEM (human lymphoblastoid leukemia). Tested drugs were added to the cell cultures in six different concentration and kept at 37° C. and 5% CO2 for three days. All cell lines were grown in DMEM medium (Gibco BRL) supplemented with 10% (v/v) fetal bovine serum and L-glutamine and maintained at 37° C. in a humidified atmosphere with 5% CO2. 10^4 cells were seeded into each well of 96 well plate, allowed to stabilize for at least 2 h and then tested compounds were added at various concentrations ranging from 200 to 0.2 μM in triplicates. Three days after drug addition Calcein AM solution (Molecular Probes) was added and let to enter the cells for 1 hour. Fluorescence of viable cells was quantified employing Fluoroskan Ascent (Microsystems).

In test [4] the test system is B16. In words: In vitro cytotoxic activity, Calcein AM. The format is cell-based. To be noted: Mus musculus, B16, 72 h, three days.

cdk1/cyclin B (CDC2), sequence (P06493 whole entry, species assumed): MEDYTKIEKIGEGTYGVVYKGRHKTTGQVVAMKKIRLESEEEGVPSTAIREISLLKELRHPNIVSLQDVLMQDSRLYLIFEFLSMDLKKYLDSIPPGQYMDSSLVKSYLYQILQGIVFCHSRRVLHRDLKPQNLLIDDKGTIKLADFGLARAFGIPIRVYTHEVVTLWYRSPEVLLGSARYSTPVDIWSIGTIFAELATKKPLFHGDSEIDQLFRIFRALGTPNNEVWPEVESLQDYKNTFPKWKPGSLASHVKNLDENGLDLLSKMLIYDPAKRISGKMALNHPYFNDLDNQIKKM
cdk1/cyclin B (CDC2), sequence (P14635 whole entry partner, species assumed): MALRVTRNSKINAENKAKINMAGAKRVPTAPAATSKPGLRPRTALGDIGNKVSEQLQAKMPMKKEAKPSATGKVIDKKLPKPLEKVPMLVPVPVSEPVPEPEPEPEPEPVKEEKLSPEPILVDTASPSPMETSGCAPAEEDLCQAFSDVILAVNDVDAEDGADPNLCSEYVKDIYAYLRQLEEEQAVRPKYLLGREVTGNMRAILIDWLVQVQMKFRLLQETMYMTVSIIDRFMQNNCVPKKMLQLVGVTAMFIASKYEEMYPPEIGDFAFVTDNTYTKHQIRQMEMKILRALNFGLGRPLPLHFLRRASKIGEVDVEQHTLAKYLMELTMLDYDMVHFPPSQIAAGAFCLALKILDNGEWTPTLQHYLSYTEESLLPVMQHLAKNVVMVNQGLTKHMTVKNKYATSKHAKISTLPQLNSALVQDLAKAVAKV

Take `CC(C)c1n[nH]c2c(NC(CO)c3ccccc3)nc(N[C@@H](CO)C(C)C)nc12` (mixture of isomers): the pIC50 in test [1] is 7.22; in test [2] it was 6.82.

As to `CC(C)c1n[nH]c2c(Nc3ccc(Cl)c(C(=O)O)c3)nc(N[C@@H](CO)C(C)C)nc12`, the GI50 in test [3] is 5800 nM; in test [4] it was 9100 nM.

As to `CC(C)c1n[nH]c2c(Nc3ccc(Cl)cc3)nc(N[C@@H](CO)C(C)C)nc12`, the GI50 in test [3] is 4100 nM; in test [4], 5700 nM.

On to `CC(=O)c1ccccc1CNc1nc(N[C@@H](CO)C(C)C)nc2c(C(C)C)n[nH]c12`, for which the pIC50 is 7.70 in test [1] and 7.30 in test [2].

As for `Cc1n[nH]c2c(Nc3ccc(Cl)c(C(=O)O)c3)nc(NCCO)nc12`, the pIC50 in test [1] was 8.30; in test [2] it was 8.00.

For `Cc1n[nH]c2c(NCc3cccc(Cl)c3O)nc(NCCO)nc12`, the pIC50 is 8.00 in test [1] and 7.52 in test [2].

In the case of `CC[C@H](CO)Nc1nc(NCc2ccc(Cl)c(O)c2O)c2[nH]nc(C(C)C)c2n1`, the figures for the pIC50 in test [1] and in test [2] were 8.52 and 7.96, respectively.

As to `CC(C)c1n[nH]c2c(Nc3cccc(Cl)c3)nc(N(CCO)CCO)nc12`, the results for the pIC50 in test [1] and in test [2] were 7.05 and 6.72, respectively.

For `CC(C)c1n[nH]c2c(Nc3ccc(O)c(C(=O)O)c3)nc(N[C@@H](CO)C(C)C)nc12`, the GI50 in test [3] is 2700 nM; in test [4] it was 4200 nM.

Turning to `CC(C)c1n[nH]c2c(NCc3ccc(Cl)c(N)c3)nc(N[C@@H](CO)C(C)C)nc12`, the results for the GI50 in test [3] and in test [4] were 2600 nM and 4400 nM, respectively.

For the compound `CC[C@H](CO)Nc1nc(NCc2ccc(OC)c(O)c2O)c2[nH]nc(C(C)C)c2n1`, the results for the pIC50 in test [1] and in test [2] were 8.70 and 8.30, respectively.

Turning to `CC[C@H](CO)Nc1nc(N(C)CCc2ccc(O)c(O)c2)c2[nH]nc(C(C)C)c2n1`, the results for the pIC50 in test [1] and in test [2] were 6.14 and 5.82, respectively.

On to `COc1cc(O)c(CNc2nc(N[C@@H](CO)C(C)C)nc3c(C(C)C)n[nH]c23)cc1O`, for which the GI50 is 1700 nM in test [3] and 2500 nM in test [4].

Turning to `CC(C)c1n[nH]c2c(Nc3cccc(Cl)c3)nc(NCCO)nc12`, the negative-log IC50 (pIC50) in test [1] was 6.96; in test [2], 6.55.

`CC(C)c1n[nH]c2c(NCc3cccc(O)c3)nc(N[C@@H](CO)C(C)C)nc12` [listing 1 of 2 here]: the negative logarithm of the IC50 (pIC50) is 8.70 in test [1] and 8.40 in test [2].

As to `COc1cc(O)c(CNc2nc(NCCO)nc3c(C)n[nH]c23)c(O)c1`, the pIC50 was 8.40 in test [1] and 8.05 in test [2].

Regarding `Cc1n[nH]c2c(NCc3c(N)cccc3Cl)nc(NCCO)nc12`, the results for the pIC50 in test [1] and in test [2] were 7.40 and 7.10, respectively.

`CC[C@H](CO)Nc1nc(Nc2ccc(Br)cc2)c2[nH]nc(C(C)C)c2n1`: the results for the GI50 in test [3] and in test [4] were 6500 nM and 9800 nM, respectively.

As for `CC(C)c1n[nH]c2c(NCc3cccc(O)c3)nc(N[C@@H](CO)C(C)C)nc12` [listing 2 of 2 here], the GI50 in test [3] was 4900 nM; in test [4], 8500 nM.

Consider `CC[C@H](CO)Nc1nc(Nc2ccc(Cl)c(C(=O)O)c2)c2[nH]nc(C(C)C)c2n1`, for which the GI50 in test [3] was 4500 nM; in test [4], 5200 nM.

Consider `Cc1n[nH]c2c(NCc3ccccc3O)nc(NCCO)nc12`, for which the pIC50 was 7.70 in test [1] and 7.30 in test [2].

For `Cc1n[nH]c2c(NCc3ccc(Cl)c(N)c3)nc(NCCO)nc12`, the results for the pIC50 in test [1] and in test [2] were 6.70 and 6.10, respectively.

In the case of `Cc1n[nH]c2c(NCc3ccccc3)nc(N(CCO)CCO)nc12`, the results for the pIC50 in test [1] and in test [2] were 6.05 and 5.68, respectively.

For `CC(C)c1n[nH]c2c(NCc3ccc(Cl)c(O)c3O)nc(N[C@@H](CO)C(C)C)nc12` [listing 1 of 2 here], the pIC50 in test [1] was 9.70; in test [2] it was 9.00.

Consider `CC(C)c1n[nH]c2c(NCc3ccccc3)nc(NCCO)nc12`, for which the results for the pIC50 in test [1] and in test [2] were 6.00 and 5.64, respectively.

Regarding `CC[C@H](CO)Nc1nc(NC(CO)c2ccccc2)c2[nH]nc(C(C)C)c2n1` (mixture of isomers), the pIC50 in test [1] was 7.05; in test [2] it was 6.68.

Consider `CC(C)c1n[nH]c2c(NCc3ccccc3O)nc(N[C@@H](CO)C(C)C)nc12`, for which the GI50 was 6700 nM in test [3] and 9800 nM in test [4].

With `Cc1cccc(CNc2nc(NCCO)nc3c(C)n[nH]c23)c1O`, the figures for the pIC50 in test [1] and in test [2] were 8.00 and 7.52, respectively.

As to `COc1ccc(CNc2nc(NCCO)nc3c(C)n[nH]c23)c(O)c1O`, the results for the pIC50 in test [1] and in test [2] were 8.10 and 7.55, respectively.

For `CC[C@H](CO)Nc1nc(NCc2c(O)cc(OC)cc2O)c2[nH]nc(C(C)C)c2n1`, the concentration for 50% growth inhibition (GI50) in test [3] was 1800 nM; in test [4], 3400 nM.

For `Cc1cccc(CNc2nc(N[C@@H](CO)C(C)C)nc3c(C(C)C)n[nH]c23)c1O`, the GI50 in test [3] is 1200 nM; in test [4], 3500 nM.

For `CC(=O)Oc1cccc(CNc2nc(N[C@@H](CO)C(C)C)nc3c(C(C)C)n[nH]c23)c1`, the GI50 in test [3] was 12500 nM; in test [4], 14600 nM.

Regarding `CC(C)c1n[nH]c2c(NCc3ccc(Cl)c(O)c3O)nc(N[C@@H](CO)C(C)C)nc12` [listing 2 of 2 here], the GI50 in test [3] was 900 nM; in test [4] it was 1400 nM.

Regarding `CC(C)c1n[nH]c2c(NCc3c(N)cccc3Cl)nc(N[C@@H](CO)C(C)C)nc12`, the GI50 in test [3] was 1500 nM; in test [4], 2500 nM.

Turning to `CC[C@H](CO)Nc1nc(Nc2ccc(N)c(Cl)c2)c2[nH]nc(C(C)C)c2n1`, the GI50 in test [3] was 12200 nM; in test [4], 19600 nM.

Regarding `CC[C@H](CO)Nc1nc(Nc2ccc(C(=O)O)c(Cl)c2)c2[nH]nc(C(C)C)c2n1`, the GI50 in test [3] was 7900 nM; in test [4] it was 11200 nM.

Regarding `CC[C@H](CO)Nc1nc(Nc2ccc(Cl)cc2)c2[nH]nc(C(C)C)c2n1`, the GI50 in test [3] was 6700 nM; in test [4], 9500 nM.

In the case of `COc1ccc(CNc2nc(N[C@@H](CO)C(C)C)nc3c(C(C)C)n[nH]c23)c(O)c1O`, the GI50 was 600 nM in test [3] and 2500 nM in test [4].

In the case of `CC(C)c1n[nH]c2c(NCc3c(O)cc(Cl)cc3O)nc(N[C@@H](CO)C(C)C)nc12`, the GI50 in test [3] was 400 nM; in test [4], 1200 nM.

Regarding `CC(C)c1n[nH]c2c(Nc3ccc(Cl)c(N)c3)nc(N[C@@H](CO)C(C)C)nc12`, the GI50 in test [3] is 2900 nM; in test [4], 4400 nM.

With `CC(C)c1n[nH]c2c(Nc3ccc(N)c(Cl)c3)nc(N[C@@H](CO)C(C)C)nc12`, the GI50 in test [3] is 2500 nM; in test [4] it was 4800 nM.

`Cc1n[nH]c2c(NC(CO)c3ccccc3)nc(NCCO)nc12` (racemic): the GI50 was 8900 nM in test [3] and 9400 nM in test [4].

In the case of `CC(C)c1n[nH]c2c(Nc3ccccc3)nc(N[C@@H](CO)C(C)C)nc12`, the values for the GI50 in test [3] and in test [4] were 2500 nM and 3600 nM, respectively.

Regarding `CC(C)c1n[nH]c2c(NCc3cc(O)c(Cl)cc3O)nc(N[C@@H](CO)C(C)C)nc12`, the figures for the GI50 in test [3] and in test [4] were 1300 nM and 2700 nM, respectively.

`CC(C)c1n[nH]c2c(NCc3cccc(Cl)c3O)nc(N[C@@H](CO)C(C)C)nc12`: the GI50 was 700 nM in test [3] and 1100 nM in test [4].

For `CC(C)c1n[nH]c2c(Nc3ccc(Br)cc3)nc(N[C@@H](CO)C(C)C)nc12`, the values for the GI50 in test [3] and in test [4] were 5800 nM and 11400 nM, respectively.

For the compound `CC(C)c1n[nH]c2c(Nc3ccc(C(=O)O)c(Cl)c3)nc(N[C@@H](CO)C(C)C)nc12`, the GI50 in test [3] was 7600 nM; in test [4] it was 12400 nM.
